# Values of other authors as cited in patent EP1656939A1 (Pooger Properties Limited, priority 2004, dated 2006).
# How the values were obtained:
# [1] = tested on: chemically induced mammary tumors
# [2] = tested on: Ehrlich-carcinoma- and sarcoma-180-bearing mice; conditions: photoperiod alternated between LD 14:10 and DL 10:14 every 3 days
compound,measurement,setting,value
"COc1ccc2[nH]cc(CCNC(C)=O)c2c1 [melatonin, N-acetyl-5-methoxytryptamine]",half-life of endogenous melatonin in the serum,"endogenous melatonin, serum",30 to 50 min
same,cleared in a single passage through the liver,single passage through the liver,Approximately 90%
same,promotion of chemically induced mammary tumors,[1]; in vivo,inhibits
same,antitumor activity,[1]; rodents,significant antitumor activity
same,reduction of survival and acceleration of tumor growth,[2],reversed
